Measurements published in ChEMBL document CHEMBL3272349, “Quantitative structure-activity relationships of antimalarial and dihydrofolate reductase inhibition by quinazolines and 5-substituted benzyl-2,4-diaminopyrimidines” (J Med Chem, 1977).

target: T1, Dihydrofolate reductase (Enterococcus faecium) (UniProt P00380)
T1 sequence (whole entry): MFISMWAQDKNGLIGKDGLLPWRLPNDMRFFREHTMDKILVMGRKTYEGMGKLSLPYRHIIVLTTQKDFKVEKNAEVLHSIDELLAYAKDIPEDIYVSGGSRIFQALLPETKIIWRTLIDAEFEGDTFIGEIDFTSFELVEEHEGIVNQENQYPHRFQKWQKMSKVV

log(1/I50) | SMILES
7.24 | Nc1nc(N)c2c(CSc3ccc(Cl)cc3)cccc2n1
7.68 | CCOC(=O)c1ccc(NCc2ccc3nc(N)nc(N)c3c2)cc1
8.64 | CCOC(=O)c1ccc(NCc2ccc3nc(N)nc(N)c3c2Cl)cc1
6.52 | Nc1nc(O)c2cc(CN(C=O)c3ccc(C(=O)NC(CCC(=O)O)C(=O)O)cc3)ccc2n1 (configuration not stated)
3.51 | Nc1ncnc2ccc(S(=O)(=O)c3ccc4ccccc4c3)cc12
8.15 | CCCCOC(=O)c1ccc(NCc2ccc3nc(N)nc(N)c3c2C)cc1
5.17 | Nc1nc(S)c2cc(S(=O)(=O)c3ccc4ccccc4c3)ccc2n1
6.54 | Nc1nc(N)c2c(Sc3ccc(Cl)c(Cl)c3)cccc2n1
7.7 | CCOC(=O)CCC(NC(=O)c1ccc(NCc2ccc3nc(N)nc(N)c3c2)cc1)C(=O)OCC (configuration not stated)
5.92 | Nc1nc(O)c2cc(Sc3ccc(Cl)c(Cl)c3)ccc2n1
4.05 | Nc1nc(N)c2c(S(=O)(=O)c3ccc4ccccc4c3)cccc2n1
9.15 | Nc1nc(N)c2cc(Sc3cccc(C(F)(F)F)c3)ccc2n1
7.68 | CCCCOC(=O)c1ccc(NCc2ccc3nc(N)nc(N)c3c2Cl)cc1
6.1 | Nc1nc(S)c2cc(Sc3ccc4ccccc4c3)ccc2n1
4.32 | O=c1[nH]c(=O)c2cc(Sc3ccc4ccccc4c3)ccc2[nH]1
6.3 | Nc1nc(O)c2cc(S(=O)(=O)c3ccc4ccccc4c3)ccc2n1
7.55 | Nc1nc(N)c2c(CSc3ccc4ccccc4c3)cccc2n1
8 | Nc1nc(N)c2c(CCc3ccc4ccccc4c3)cccc2n1
5.3 | Nc1nc(O)c2cc(S(=O)(=O)c3ccc(Cl)c(Cl)c3)ccc2n1
8.7 | Nc1nc(N)c2cc([S+]([O-])c3ccc4ccccc4c3)ccc2n1 (configuration not stated)
5.74 | Nc1nc(O)c2cc(CNc3ccc(C(=O)O)cc3)ccc2n1
4.34 | Nc1nc(O)nc2ccc(Sc3ccc4ccccc4c3)cc12
8.24 | Nc1nc(N)c2cc(Sc3ccc(Cl)c(Cl)c3)ccc2n1
3.65 | Sc1nc(S)c2cc(Sc3ccc4ccccc4c3)ccc2n1
8.8 | Nc1nc(N)c2cc(CNc3ccc(C(=O)O)cc3)ccc2n1
4.69 | Nc1nc(S)nc2ccc(Sc3ccc4ccccc4c3)cc12
8.29 | CCOC(=O)c1ccc(NCc2ccc3nc(N)nc(N)c3c2C)cc1
8.85 | CCOC(=O)c1ccc(CNc2ccc3nc(N)nc(N)c3c2C)cc1

log(1/I50) | SMILES
4.36 | Nc1nc(N)c2c([S+]([O-])c3ccc4ccccc4c3)cccc2n1 (configuration not stated)
4.68 | Nc1nc(O)c2c(Sc3ccc4ccccc4c3)cccc2n1
8.6 | Cc1c(CNc2ccc(C(=O)NC(CC(=O)O)C(=O)O)cc2)ccc2nc(N)nc(N)c12 (configuration not stated)
8.2 | CCOC(=O)c1ccc(CNc2ccc3nc(N)nc(N)c3c2Cl)cc1
4.65 | Nc1nc(N)c2c([S+]([O-])c3ccc(Cl)c(Cl)c3)cccc2n1 (configuration not stated)
7.43 | Nc1nc(N)c2c(/C=C\c3ccc4ccccc4c3)cccc2n1
9 | Nc1nc(N)c2cc(CN(C=O)c3ccc(C(=O)NC(CCC(=O)O)C(=O)O)cc3)ccc2n1 (configuration not stated)
7.25 | Nc1nc(N)c2c(Sc3ccc4ccccc4c3)cccc2n1
9.15 | Nc1nc(N)c2cc(S(=O)(=O)c3ccc(Cl)c(Cl)c3)ccc2n1
7.07 | CCOC(=O)c1ccc(NCc2ccc3nc(N)nc(O)c3c2)cc1
5.28 | Nc1nc(O)c2cc([S+]([O-])c3ccc4ccccc4c3)ccc2n1 (configuration not stated)
6.09 | CCOC(=O)c1ccc(CNc2ccc3nc(N)nc(O)c3c2Cl)cc1
7.34 | CCOC(=O)c1ccc(CNc2ccc3nc(N)nc(N)c3c2)cc1
3.85 | Oc1nc(S)nc2ccc(Sc3ccc4ccccc4c3)cc12
4.52 | CCOC(=O)c1ccc(CNc2ccc3nc(N)nc(O)c3c2C)cc1
7.12 | Nc1nc(N)c2c(/C=C/c3ccc4ccccc4c3)cccc2n1
5.85 | Nc1nc(O)c2c(S(=O)(=O)c3ccc4ccccc4c3)cccc2n1
4.24 | O=c1[nH]c(=S)c2cc(Sc3ccc4ccccc4c3)ccc2[nH]1
4.58 | Nc1ncnc2ccc([S+]([O-])c3ccc4ccccc4c3)cc12 (configuration not stated)
5.85 | Nc1nc(N)c2c(S(=O)(=O)c3ccc(Cl)c(Cl)c3)cccc2n1
8.27 | Nc1nc(N)c2c(Cl)c(CNc3ccc(C(=O)O)cc3)ccc2n1
4.07 | Nc1ncnc2ccc(Sc3ccc4ccccc4c3)cc12
4.55 | CCOC(=O)c1ccc(CNc2ccc3nc(N)nc(O)c3c2)cc1
6.74 | Nc1nc(O)c2cc(Sc3ccc4ccccc4c3)ccc2n1
8.4 | Nc1nc(N)c2cc(S(=O)(=O)c3ccc4ccccc4c3)ccc2n1
7.96 | Cc1c(CNc2ccc(C(=O)O)cc2)ccc2nc(N)nc(N)c12
7.52 | CCCCOC(=O)c1ccc(NCc2ccc3nc(N)nc(N)c3c2)cc1

system: Plasmodium berghei; assay: Antimalarial activity against Plasmodium berghei infected mouse assessed as suppression of parasitemia administered through diet for 6 days; format: functional

SMILES | log(1/SD90)
Nc1nc(N)c2cc(NCc3ccccc3[N+](=O)[O-])ccc2n1 | 3.26
CCN(Cc1ccc(Cl)c(Cl)c1)c1ccc2nc(N)nc(N)c2c1C | 5.2
CC(c1ccc(Cl)c(Cl)c1)N(C)c1ccc2nc(N)nc(N)c2c1 (configuration not stated) | 5.6
CC(C)N(Cc1ccc(Cl)cc1)c1ccc2nc(N)nc(N)c2c1 | 6.76
Nc1nc(N)c2cc(N(Cc3ccc(Cl)c(Cl)c3)N=O)cnc2n1 | 4.48
CC(Nc1ccc2nc(N)nc(N)c2c1)c1ccc(Cl)c(Cl)c1 (configuration not stated) | 4.6
CN(C)c1nc(N(C)C)c2cc(NCc3ccc(Cl)c(Cl)c3)ccc2n1 | 4.21
Nc1nc(N)c2cc(NCc3ccccc3N)ccc2n1 | 3.07
CCCCNc1nc(NCCCC)c2cc(NCc3ccc(Cl)c(Cl)c3)ccc2n1 | 3.47
CCCN(Cc1ccc(Cl)c(Cl)c1)c1ccc2nc(N)nc(N)c2c1C | 5.36
CCCN(Cc1ccc(Cl)c(Cl)c1)c1ccc2nc(N)nc(N)c2c1 | 6.1
CCN(Cc1ccc(Cl)cc1)c1ccc2nc(N)nc(N)c2c1 | 6.4
CCCCCCCCN(Cc1ccc(Cl)cc1)c1ccc2nc(N)nc(N)c2c1 | 4.08
Cc1c(NCc2ccccc2)ccc2nc(N)nc(N)c12 | 5.33
Cc1c(NCc2ccc(Cl)c(Cl)c2)ccc2nc(N)nc(N)c12 | 4.83
CN(C)c1nc(N)c2cc(NCc3ccccc3)ccc2n1 | 3.75
CCN(CC)c1nc(N(CC)CC)c2cc(NCc3ccc(Cl)c(Cl)c3)ccc2n1 | 3.31
CCCCN(Cc1ccc(Cl)c(Cl)c1)c1ccc2nc(N)nc(N)c2c1 | 5.06
Nc1nc(N)c2cc(NCCc3ccc(Cl)cc3)ccc2n1 | 4.24
Nc1nc(N)c2cc(NCc3cccc(Br)c3)ccc2n1 | 5.93
CN(Cc1ccccc1)c1ccc2nc(N)nc(N)c2c1 | 6.15
CN(Cc1ccc(Cl)c(Cl)c1)c1ccc2nc(N)nc(N)c2c1 | 6.34
Nc1nc(N)c2cc(NCc3ccc4ccccc4c3Cl)ccc2n1 | 4.59
CCN(Cc1ccc(Cl)c(Cl)c1)c1ccc2nc(N)nc(N)c2c1 | 6
COc1cccc(CNc2ccc3nc(N)nc(N)c3c2)c1 | 4.15
Nc1nc(N)c2cc(NCc3ccc(Cl)s3)ccc2n1 | 4.49
CCN(Cc1cccc2ccccc12)c1ccc2nc(N)nc(N)c2c1 | 5.97
